How the values were obtained:
Assay type in all cases: biochemical
[1] = biological target: group VIA calcium-independent (iPLA2) (Homo sapiens, UniProt O60733); test: Lipidomics LC-MS mixed micelle PLA2 assay, iPLA2; conditions: for IC50: IC50, single phospholipid PAPC
[2] = biological target: T1, group V secreted PLA2 (sPLA2) (Homo sapiens, UniProt P39877); test: Lipidomics LC-MS mixed micelle PLA2 assay, sPLA2
T1 sequence (P39877 21-138): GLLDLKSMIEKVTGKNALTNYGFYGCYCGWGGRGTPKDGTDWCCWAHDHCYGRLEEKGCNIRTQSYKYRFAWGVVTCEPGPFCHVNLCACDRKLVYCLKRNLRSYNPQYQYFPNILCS

[3] = biological target: T1, group V secreted PLA2 (sPLA2); test: Traditional radioactive assay

Chain of group VIA calcium-independent (iPLA2) (O60733 whole entry): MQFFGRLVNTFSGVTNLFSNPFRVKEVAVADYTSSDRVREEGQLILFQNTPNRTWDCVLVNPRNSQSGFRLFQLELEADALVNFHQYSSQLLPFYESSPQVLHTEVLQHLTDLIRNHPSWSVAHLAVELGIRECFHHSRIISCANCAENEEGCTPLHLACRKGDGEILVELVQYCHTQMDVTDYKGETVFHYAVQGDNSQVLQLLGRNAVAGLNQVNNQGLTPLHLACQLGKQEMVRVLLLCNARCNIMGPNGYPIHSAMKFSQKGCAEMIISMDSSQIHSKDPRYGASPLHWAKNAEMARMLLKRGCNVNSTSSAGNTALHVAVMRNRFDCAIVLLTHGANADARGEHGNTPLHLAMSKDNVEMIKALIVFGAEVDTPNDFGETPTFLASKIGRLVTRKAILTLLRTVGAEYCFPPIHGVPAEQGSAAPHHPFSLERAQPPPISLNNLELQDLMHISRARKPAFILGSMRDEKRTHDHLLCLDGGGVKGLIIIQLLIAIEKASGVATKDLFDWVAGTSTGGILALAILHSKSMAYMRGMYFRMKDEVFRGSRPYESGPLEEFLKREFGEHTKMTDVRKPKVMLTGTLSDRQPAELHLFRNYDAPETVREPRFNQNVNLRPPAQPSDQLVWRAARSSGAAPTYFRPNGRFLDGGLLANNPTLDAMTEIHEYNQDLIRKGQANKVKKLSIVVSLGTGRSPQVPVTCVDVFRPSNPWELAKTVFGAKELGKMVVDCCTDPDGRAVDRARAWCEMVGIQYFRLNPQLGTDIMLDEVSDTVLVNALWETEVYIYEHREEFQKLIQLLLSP

IC50 ([1]; 16:0 LPC detected, positive ion mode)	IC50 ([1]; free AA detected, negative ion mode)	greater inhibitor potency with PAPC as substrate versus PLPC ([1]; PAPC versus PLPC substrate)	Structure (SMILES)	IC50 ([2]; IC50, single phospholipid PAPC, 16:0 LPC detected, positive ion mode)	IC50 ([2]; IC50, single phospholipid PAPG, 16:0 LPG detected, positive ion mode)	IC50 ([2]; IC50, single phospholipid PAPG, free AA detected, negative ion mode)	XI(50) ([2]; single phospholipid PAPC, free AA detected, negative ion mode)	IC50 [3]
58 nM	34 nM	approximately twofold	CCCCCCCCSCC(=O)C(F)(F)F [OTFP]					
			CCc1c(C(=O)C(N)=O)c2c(OCC(=O)O)cccc2n1Cc1ccccc1 [Ly315920]	104 nM	18000 nM	22000 nM	0.0002	56 nM

Source: article PMC6398150 (Journal of Medicinal Chemistry, 2019)
